In patent publication US6896895B2, “Carotenoid esters, carotenoid-enriched feeds, and methods of pigmenting foods and foodstuffs” (DSM IP Assets B.V., priority 2000, dated 2005):

Tests used:
[1] = system: skin and shanks of broilers; assay: Reflectance colorimetry and visual classification of skin and shanks of broilers; type: in vivo, broiler chickens (Ross 308, Ross 508); parameters: key to Shanks Visual Classification / Skin Visual Classification: −; (+); +; ++ = good color; o = orange; settings: dry carcasses, average over doses, Table 6
Method: (§1) Pigmentation efficacy was assessed in egg yolk, in the back skin of the broiler carcass, and in broiler shanks by reflectance colorimetry accompanied by visual scoring (Roche Colour Fan). The deposition of the ethyl-β-apo-8′-carotenoate (control) and the other carotenoid esters was determined in egg yolk and in the broiler back skin. In addition, the carotenoid levels in plasma and abdominal fat were measured.
(§2) The trials were carried out using chickens of the type Ross 308 (trials MC-24/98 and MC-02/99) and Ross 508 (trials MC-11/99, MC-16/99, MC-24/99, and MC-03/00) (Couvir de la Bohardière, F-49290 Saint Laurent de la Plaine). One-day old broiler chickens, separated by sex, were divided by weight into experimental groups of ten animals each and reared in floor pens littered with wood shavings. The chickens were fed a low carotenoid basal grower diet until day 22 (trials MC-24/98, MC-02/99, and MC-11/99) or until day 15 (trials MC-16/99, MC-24/99, and MC-03/00). The low carotenoid basal grower diet contained less than 2 mg total xanthophylls per kg of feed, and its composition is described in Table 2. For the subsequent experimental period of three weeks, the birds received the basal diet supplemented with an appropriate pigment. The feed was given in the form of crumbled pellets during the first week and as pellets thereafter. The animals had unrestricted access to feed and water. A given treatment involved one group of male and one group of female chickens. Each group of chickens was weighed at day 22 (trials MC-24/98, MC-02/99, and MC-11/99) or day 15 (trials MC-16/99, MC-24/99, and MC-03/00) and on day 43. On day 42, five chickens per group were selected at random, labelled, and blood samples were taken from the jugular vein. At the end of the experiment (day 44) the animals were slaughtered in a commercial slaughterhouse (Freyburger, Dannemarie, France). The following day, the color of the skin (hind back of carcasses) and the shanks of the labelled chicken were measured by reflectance colorimetry (Minolta CR 200 apparatus, CIE-Lab system). Samples of the dorsal skin and abdominal fat were obtained, pooled for each experimental group, and the carotenoid concentration was determined. The concentration of carotenoids in feed, plasma, skin, and abdominal fat was determined by standard procedures as described after Tables 1 and 2.
The color of broiler skin and shanks was measured using a tristimulus Minolta CR-300 Chromameter with diffuse D65-illumination and a 0° viewing angle. The color of the skin was read at three different points on the back of the dry broiler carcasses and average values of the triple measurements were recorded. The color of shanks was measured using single measurements at the ball between the toes.
(§3) The color data were expressed as CIE L*a*b*-values including h*(hue) and C* (chroma). The values given in the tables per treatment and trial represent averages of color measurements of four egg yolk pools, ten broiler back skins, or ten broiler shanks (5 males and 5 females).

egg yolk = assay: Egg yolk colour: reflectance colorimetry and Roche Yolk Colour Fan; type: in vivo, laying hens (ISA Brown); settings: egg yolk, laying hens, 5.0 mg/kg feed
Method: as §1
The trials were carried out following the standard experimental design used for egg yolk pigmentation trials at the Roche Research Center for Animal Nutrition (CRNA, F-68305 Village-Neuf, France). Each year in February the pigmentation trials are started with a new flock of layers. At the beginning of the trials the age of the laying hens (192 birds, type ‘ISA Brown’) were as follows:
(§4) Preceding the trials the hens were fed a low carotenoid basal diet (produced at the CRNA) without carotenoid supplementation for at least 28 days. During the trials, the control group received the low carotenoid basal diet containing less than 2 mg total xanthophylls per kg of feed. The other animals were fed this diet supplemented with the appropriate pigments for three weeks. The diet was given to the animals ad libitum in mash form. The hens had free access to tap water. Beside the unsupplemented control treatment, treatments were carried out involving the provision of supplemented feed, the results of these treatments being presented in Tables 7-9.
Egg yolk color was assessed as described by Steinberg, et al. (Arch. Geflügelk 64 (4), 180-187 (2000)). The yolks were manually separated from the whites of the eggs. The isolated yolks of three to six eggs were combined, weighed, and stirred with a glass rod until the color appeared homogeneous. The color hue was visually scored using the Roche Yolk Colour Fan (RYCF, version 1993). An aliquot of the pooled egg yolks was transferred into a glass cuvette yielding an approximately 2 cm thick layer. The color was then measured by means of a Dr. Lange Xeno Color LS 100 spectro-colorimeter with diffuse D65-illumination and a 8° viewing angle.
as §3

[2] = Carotenoid ester content in plasma, back skin and abdominal fat of broilers (HPLC); type: in vivo, broiler chickens (Ross 308, Ross 508); settings: average over doses, Table 4
Method: as §1, §2
The content of the various carotenoid esters in feed was determined according to the method of Schierle, et al. (J. Schierle , N. Faccin, V. Riegert, Analytical Methods for Vitamins and Carotenoids in Feed, Revised supplement: Determination of Stabilized Apocarotenoic Ester and Canthaxanthin in Premixes and Feeds, Roche publication no. 50771 (1995), publicly available from. F. Hoffmann-La Roche Ltd., CH-4070 Basel). This method was modified in that the mobile phase of the normal-phase HPLC contained 0.5% instead of 7% acetone in n-hexane, improving the separation of the E/Z-isomers of the carotenoid esters. Peaks were related to all-E- and Z-isomers of the various carotenoid esters by chromatography of heat-isomerized solutions of the respective reference substances in n-hexane. The HPLC system was calibrated with the all-E-isomer of ethyl β-apo-8′-carotenoate. The response factor of the various derivatives was deduced from that of ethyl β-apo-8′-carotenoate taking into account the respective molecular weight. The content of the Z-isomer fractions was calculated based on the response of the all-E-isomer and using a correction factor of 1.4 to account for the lower specific absorbance of the Z-isomers.
(§5) The HPLC-system for in-feed analysis was also used to quantify the carotenoid esters in egg yolk, broiler tissues, and broiler plasma, but the extraction procedure was different for the various matrices.
For plasma extraction, 1.0 g of the well-mixed plasma sample was introduced into a 10 ml test tube with 1.0 ml of demineralized water and 4.0 ml of ethanol, and the contents mixed on a Vortex shaker. […]

[3] = Carotenoid ester content and deposition rate in egg yolk of laying hens (HPLC); type: in vivo, laying hens (ISA Brown); settings: egg yolk; for Deposition Rate Target Values % of Controls / Ethyl β-apo-8′-carotenoate Equivalents % of Controls: Table 8; for Deposition Rate % of Controls: Table 10
Method: as §1
Each year in February the pigmentation trials are started with a new flock of layers.
as §4, with “water.” for “water. Beside the unsupplemented control treatment, treatments were carried out involving the provision of supplemented feed, the results of these treatments being presented in Tables 7-9.”
Peaks were related to all-E- and Z-isomers of the various carotenoid esters by chromatography of heat-isomerized solutions of the respective reference substances in n-hexane. The HPLC system was calibrated with the all-E-isomer of ethyl β-apo-8′-carotenoate. The response factor of the various derivatives was deduced from that of ethyl β-apo-8′-carotenoate taking into account the respective molecular weight. The content of the Z-isomer fractions was calculated based on the response of the all-E-isomer and using a correction factor of 1.4 to account for the lower specific absorbance of the Z-isomers.
as §5
For the extraction of egg yolk, 10 g of pooled and homogenised yolk were mixed with 10 ml of demineralized water using a dispersion instrument (Polytron). 1.0 g of diluted egg yolk was introduced into a 10 ml test tube with 1.0 ml of demineralized water and 2.0 ml of ethanol, and the contents were mixed on a Vortex shaker. After addition of 4.0 ml of n-hexane, the mixture was further treated as described for plasma.

Analytical Content as Equivalent of Ethyl β-apo-8′-carotenoate in % of control Fat [2] [%]	Analytical Content as Equivalent of Ethyl β-apo-8′-carotenoate in % of control Plasma [2] [%]	Analytical Content as Equivalent of Ethyl β-apo-8′-carotenoate in % of control Skin [2] [%]	Deposition Rate Target Values % of Controls ([3]; trial H-25/99, 5.0 mg/kg feed) [%]	Ethyl β-apo-8′-carotenoate Equivalents % of Controls ([3]; trial H-25/99, 5.0 mg/kg feed) [%]	Deposition Rate % of Controls ([3]; trial H-25/99, 5.0 mg/kg feed) [%]	SMILES	Shanks Chroma C*ab % of Controls [1] [%]	Shanks Color Hue h*ab % of Controls [1] [%]	Shanks Visual Classification [1]	Skin Chroma C*ab % of Controls [1] [%]	Skin Color Hue h*ab % of Controls [1] [%]	Skin Visual Classification [1]	Color Fan Value % of Controls (egg yolk; trial H-25/99, Table 8) [%]	Chroma C*ab % of Controls (egg yolk; trial H-25/99, Table 10) [%]	Color Fan Value % of Controls (egg yolk; trial H-25/99, Table 10) [%]	Color Hue h*ab % of Controls (egg yolk; trial H-25/99, Table 10) [%]	further results
62	78	76	89	81	89	CC(C=CC=C(C)C=CC1=C(C)CCCC1(C)C)=CC=CC=C(C)C=CC=C(C)C(=O)OCC(C)(C)C [(8), 2,2-dimethylpropyl beta-apo-8′-carotenoate]	98	101	(+)	98	100	(+)	108	94	108	101	
45	59	55	87	77	87	CCC(CC)COC(=O)C(C)=CC=CC(C)=CC=CC=C(C)C=CC=C(C)C=CC1=C(C)CCCC1(C)C [(9), 2-ethyl-1-butyl beta-apo-8′-carotenoate]	92	101	(+)	82	101	+	101	99	101	92	

More lines, now with the values behind:

SMILES	Analytical Content as Equivalent of Ethyl β-apo-8′-carotenoate in % of control Fat [2] [%]	Analytical Content as Equivalent of Ethyl β-apo-8′-carotenoate in % of control Plasma [2] [%]	Analytical Content as Equivalent of Ethyl β-apo-8′-carotenoate in % of control Skin [2] [%]	Deposition Rate Target Values % of Controls ([3]; trial H-25/99, 5.0 mg/kg feed) [%]	Ethyl β-apo-8′-carotenoate Equivalents % of Controls ([3]; trial H-25/99, 5.0 mg/kg feed) [%]	Deposition Rate % of Controls ([3]; trial H-25/99, 5.0 mg/kg feed) [%]	Shanks Chroma C*ab % of Controls [1] [%]	Shanks Color Hue h*ab % of Controls [1] [%]	Shanks Visual Classification [1]	Skin Chroma C*ab % of Controls [1] [%]	Skin Color Hue h*ab % of Controls [1] [%]	Skin Visual Classification [1]	Color Fan Value % of Controls (egg yolk; trial H-25/99, Table 8) [%]	Chroma C*ab % of Controls (egg yolk; trial H-25/99, Table 10) [%]	Color Fan Value % of Controls (egg yolk; trial H-25/99, Table 10) [%]	Color Hue h*ab % of Controls (egg yolk; trial H-25/99, Table 10) [%]	further results
CC(C=CC=C(C)C=CC1=C(C)CCCC1(C)C)=CC=CC=C(C)C=CC=C(C)C(=O)OCCC(C)C [(6), isoamyl beta-apo-8′-carotenoate]	35	62	38				86	101	(+)	89	99	(+)					Color Fan Value % of Controls (egg yolk; trial H-18/99, Table 8): 116%; Chroma C*ab % of Controls (egg yolk; trial H-18/99, Table 10): 105%; Color Fan Value % of Controls (egg yolk; trial H-18/99, Table 10): 116%; Color Hue h*ab % of Controls (egg yolk; trial H-18/99, Table 10): 101%; Deposition Rate Target Values % of Controls ([3]; trial H-18/99, 5.0 mg/kg feed): 90%; Ethyl β-apo-8′-carotenoate Equivalents % of Controls ([3]; trial H-18/99, 5.0 mg/kg feed): 80%; Deposition Rate % of Controls ([3]; trial H-18/99, 5.0 mg/kg feed): 90%
CCC(C)COC(=O)C(C)=CC=CC(C)=CC=CC=C(C)C=CC=C(C)C=CC1=C(C)CCCC1(C)C (stereo not drawn) [(7), 2-methyl-butyl beta-apo-8′-carotenoate]	45	62	40	95	86	95	85	101	(+)	80	94	(+)	108	87	108	106	
CCCC(C)COC(=O)C(C)=CC=CC(C)=CC=CC=C(C)C=CC=C(C)C=CC1=C(C)CCCC1(C)C (stereo not drawn) [(11), 2-methyl-1-pentyl beta-apo-8′-carotenoate]	50	59	69	112	96	112	92	101	(+)	87	95	+	116	101	116	103	
